In PubChem BioAssay (NCI):
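Five compound concentrations were applied to cells in 96-well plates for 48 hours; endpoints were derived by simple linear interpolation of the resulting dose-response curve. GI50: concentration for 50% inhibition of growth. TGI is the concentration that stops growth completely.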

Tests used:
Assay in all cases: NCI-60 cell line screen, 48 h
786-0 renal = test system: 786-0 renal
ACHN renal = test system: ACHN renal
CAKI-1 renal = test system: CAKI-1 renal
CCRF-CEM leukemia = test system: CCRF-CEM leukemia
COLO 205 colon = test system: COLO 205 colon
DU-145 prostate = test system: DU-145 prostate
EKVX NSCLC = test system: EKVX NSCLC
HCC-2998 colon = test system: HCC-2998 colon
HCT-116 colon = test system: HCT-116 colon
HCT-15 colon = test system: HCT-15 colon
HL-60(TB) leukemia = test system: HL-60(TB) leukemia
HOP-92 NSCLC = test system: HOP-92 NSCLC
HS 578T breast = test system: HS 578T breast
HT29 colon = test system: HT29 colon
IGROV1 ovarian = test system: IGROV1 ovarian
K-562 leukemia = test system: K-562 leukemia
KM12 colon = test system: KM12 colon
LOX IMVI melanoma = test system: LOX IMVI melanoma
M14 melanoma = test system: M14 melanoma
MCF7 breast = test system: MCF7 breast
MDA-MB-231 breast = test system: MDA-MB-231 breast
MDA-MB-435 = test system: MDA-MB-435
MOLT-4 leukemia = test system: MOLT-4 leukemia
NCI-H226 lung = test system: NCI-H226 lung
NCI-H23 lung = test system: NCI-H23 lung
NCI-H460 lung = test system: NCI-H460 lung
NCI/ADR-RES ovarian = test system: NCI/ADR-RES ovarian
OVCAR-4 ovarian = test system: OVCAR-4 ovarian
OVCAR-8 ovarian = test system: OVCAR-8 ovarian
RPMI-8226 leukemia = test system: RPMI-8226 leukemia
RXF 393 renal = test system: RXF 393 renal
SF-268 CNS = test system: SF-268 CNS
SF-295 CNS = test system: SF-295 CNS
SF-539 CNS = test system: SF-539 CNS
SK-MEL-28 melanoma = test system: SK-MEL-28 melanoma
SK-MEL-5 melanoma = test system: SK-MEL-5 melanoma
SK-OV-3 ovarian = test system: SK-OV-3 ovarian
SNB-19 CNS = test system: SNB-19 CNS
SNB-75 CNS = test system: SNB-75 CNS
SR leukemia = test system: SR leukemia
SW-620 colon = test system: SW-620 colon
T-47D breast = test system: T-47D breast
TK-10 renal = test system: TK-10 renal
U251 CNS = test system: U251 CNS
UACC-257 melanoma = test system: UACC-257 melanoma
UACC-62 melanoma = test system: UACC-62 melanoma
UO-31 renal = test system: UO-31 renal
A498 renal = test system: A498 renal
A549 NSCLC = test system: A549 NSCLC
BT-549 breast = test system: BT-549 breast
MALME-3M melanoma = test system: MALME-3M melanoma
NCI-H522 lung = test system: NCI-H522 lung
OVCAR-3 ovarian = test system: OVCAR-3 ovarian
OVCAR-5 ovarian = test system: OVCAR-5 ovarian
PC-3 prostate = test system: PC-3 prostate
SK-MEL-2 melanoma = test system: SK-MEL-2 melanoma
SN12C renal = test system: SN12C renal

Compound: CSC1=C(C(=O)Nc2ccc(C)cc2)C(N)=NC1=O
- TGI (786-0 renal): > 100 µM
- TGI (ACHN renal): > 100 µM
- TGI (CAKI-1 renal): > 100 µM
- TGI (CCRF-CEM leukemia): > 100 µM
- TGI (COLO 205 colon): > 100 µM
- TGI (DU-145 prostate): > 100 µM
- TGI (EKVX NSCLC): > 100 µM
- TGI (HCC-2998 colon): > 100 µM
- TGI (HCT-116 colon): > 100 µM
- TGI (HCT-15 colon): > 100 µM
- TGI (HL-60(TB) leukemia): > 100 µM
- TGI (HOP-92 NSCLC): > 100 µM
- TGI (HS 578T breast): > 100 µM
- TGI (HT29 colon): > 100 µM
- TGI (IGROV1 ovarian): > 100 µM
- TGI (K-562 leukemia): > 100 µM
- TGI (KM12 colon): > 100 µM
- TGI (LOX IMVI melanoma): > 100 µM
- TGI (M14 melanoma): > 100 µM
- TGI (MCF7 breast): > 100 µM
- TGI (MDA-MB-231 breast): > 100 µM
- TGI (MDA-MB-435): > 100 µM
- TGI (MOLT-4 leukemia): > 100 µM
- TGI (NCI-H226 lung): > 100 µM
- TGI (NCI-H23 lung): > 100 µM
- TGI (NCI-H460 lung): > 100 µM
- TGI (NCI/ADR-RES ovarian): > 100 µM
- TGI (OVCAR-4 ovarian): > 100 µM
- TGI (OVCAR-8 ovarian): > 100 µM
- TGI (RPMI-8226 leukemia): > 100 µM
- TGI (RXF 393 renal): > 100 µM
- TGI (SF-268 CNS): > 100 µM
- TGI (SF-295 CNS): > 100 µM
- TGI (SF-539 CNS): > 100 µM
- TGI (SK-MEL-28 melanoma): > 100 µM
- TGI (SK-MEL-5 melanoma): > 100 µM
- TGI (SK-OV-3 ovarian): > 100 µM
- TGI (SNB-19 CNS): > 100 µM
- TGI (SNB-75 CNS): > 100 µM
- TGI (SR leukemia): > 100 µM
- TGI (SW-620 colon): > 100 µM
- TGI (T-47D breast): > 100 µM
- TGI (TK-10 renal): > 100 µM
- TGI (U251 CNS): > 100 µM
- TGI (UACC-257 melanoma): > 100 µM
- TGI (UACC-62 melanoma): > 100 µM
- TGI (UO-31 renal): > 100 µM

Compound: Cc1ccc(C2CC3(c4ccccc4)ON=C(c4ccccc4)N3c3ccccc3S2)cc1 (centres undefined)
- GI50 (HCT-116 colon): 8.08 µM
- GI50 (K-562 leukemia): 38.5 µM
- GI50 (MOLT-4 leukemia): 38.9 µM
- GI50 (U251 CNS): 20.6 µM

Compound: Cc1cc(C)c2c(c1)CC1(Cc3ccc(C)c(C)c3C1=O)C2=O (centres undefined)
- TGI (786-0 renal): > 100 µM
- TGI (A498 renal): > 100 µM
- TGI (A549 NSCLC): > 100 µM
- TGI (BT-549 breast): > 100 µM
- TGI (CAKI-1 renal): > 100 µM
- TGI (DU-145 prostate): > 100 µM
- TGI (HCC-2998 colon): > 100 µM
- TGI (HOP-92 NSCLC): > 100 µM
- TGI (HS 578T breast): > 100 µM
- TGI (LOX IMVI melanoma): > 100 µM
- TGI (M14 melanoma): > 100 µM
- TGI (MALME-3M melanoma): > 100 µM
- TGI (MDA-MB-231 breast): > 100 µM
- TGI (NCI-H23 lung): > 100 µM
- TGI (NCI-H460 lung): > 100 µM
- TGI (NCI-H522 lung): > 100 µM
- TGI (OVCAR-3 ovarian): > 100 µM
- TGI (OVCAR-4 ovarian): > 100 µM
- TGI (OVCAR-5 ovarian): > 100 µM
- TGI (OVCAR-8 ovarian): > 100 µM
- TGI (PC-3 prostate): > 100 µM
- TGI (RPMI-8226 leukemia): > 100 µM
- TGI (RXF 393 renal): > 100 µM
- TGI (SF-268 CNS): > 100 µM
- TGI (SF-539 CNS): > 100 µM
- TGI (SK-MEL-2 melanoma): > 100 µM
- TGI (SK-MEL-28 melanoma): > 100 µM
- TGI (SK-MEL-5 melanoma): > 100 µM
- TGI (SK-OV-3 ovarian): > 100 µM
- TGI (SN12C renal): > 100 µM
- TGI (SNB-19 CNS): > 100 µM
- TGI (SNB-75 CNS): > 100 µM
- TGI (T-47D breast): > 100 µM
- TGI (TK-10 renal): > 100 µM
- TGI (U251 CNS): > 100 µM
- TGI (UACC-257 melanoma): > 100 µM
- TGI (UACC-62 melanoma): > 100 µM
- TGI (UO-31 renal): > 100 µM
